Measured values from PubChem BioAssay AID248 (DTP/NCI, 2004).
Several values for one entry are separate records, joined by “and”; a condition that tells them apart may be missing. Equal entries are not always repeated. Toxic doses and inconclusive results are not listed. Rule as the data show it: active = T/C of 150% or more; inactive = T/C below 125%.

Tested on: L1210 leukemia ip in BDF1 mice, survival T/C
Test: NCI In Vivo Anticancer Drug Screen. Data for tumor model L1210 Leukemia (intraperitoneal) in B6D2F1 (BDF1) mice
Settings: endpoint: mean survival time, higher = longer survival
How it was run: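 Transplantable tumor model; survival measured in treated vs vehicle control mice. Value = treated/control.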

[1] = dose: 50.0 mg/kg/injection, schedule: Q01DX009 (ip), vehicle: saline
[2] = dose: 100.0 mg/kg/injection, schedule: Q01DX009 (ip), vehicle: saline
[3] = dose: 200.0 mg/kg/injection, schedule: Q01DX009 (ip), vehicle: saline
[4] = dose: 100.0 mg/kg/injection, schedule: Q01DX009 (ip), vehicle: saline with Tween-80
[5] = dose: 200.0 mg/kg/injection, schedule: Q01DX009 (ip), vehicle: saline with Tween-80
[6] = dose: 400.0 mg/kg/injection, schedule: Q01DX009 (ip), vehicle: saline with Tween-80
[7] = dose: 100.0 mg/kg/injection, schedule: Q04DX003 (ip), vehicle: Klucel (hydroxypropylcellulose) (HPC)
[8] = dose: 100.0 mg/kg/injection, schedule: Q01DX001 (ip), vehicle: Klucel (hydroxypropylcellulose) (HPC)
[9] = dose: 200.0 mg/kg/injection, schedule: Q01DX001 (ip), vehicle: Klucel (hydroxypropylcellulose) (HPC)
[10] = dose: 100.0 mg/kg/injection, schedule: Q01DX009 (ip), vehicle: Klucel (hydroxypropylcellulose) (HPC)
[11] = dose: 200.0 mg/kg/injection, schedule: Q01DX009 (ip), vehicle: Klucel (hydroxypropylcellulose) (HPC)
[12] = dose: 200.0 mg/kg/injection, schedule: Q04DX003 (ip), vehicle: Klucel (hydroxypropylcellulose) (HPC)
[13] = dose: 400.0 mg/kg/injection, schedule: Q01DX009 (ip), vehicle: Klucel (hydroxypropylcellulose) (HPC)
[14] = dose: 400.0 mg/kg/injection, schedule: Q04DX003 (ip), vehicle: Klucel (hydroxypropylcellulose) (HPC)
[15] = dose: 100.0 mg/kg/injection, schedule: Q04DX002 (ip), vehicle: saline with Tween-80
[16] = dose: 200.0 mg/kg/injection, schedule: Q04DX002 (ip), vehicle: saline with Tween-80
[17] = dose: 100.0 mg/kg/injection, schedule: Q01DX001 (ip), vehicle: saline
[18] = dose: 200.0 mg/kg/injection, schedule: Q01DX001 (ip), vehicle: saline
[19] = dose: 400.0 mg/kg/injection, schedule: Q01DX001 (ip), vehicle: saline
[20] = dose: 400.0 mg/kg/injection, schedule: Q04DX002 (ip), vehicle: saline with Tween-80
[21] = dose: 100.0 mg/kg/injection, schedule: Q04DX003 (ip), vehicle: saline with Tween-80
[22] = dose: 200.0 mg/kg/injection, schedule: Q04DX003 (ip), vehicle: saline with Tween-80
[23] = dose: 50.0 mg/kg/injection, schedule: Q01DX009 (ip), vehicle: saline with Tween-80
[24] = dose: 100.0 mg/kg/injection, schedule: Q04DX002 (ip), vehicle: Klucel (hydroxypropylcellulose) (HPC)
[25] = dose: 200.0 mg/kg/injection, schedule: Q04DX002 (ip), vehicle: Klucel (hydroxypropylcellulose) (HPC)
[26] = dose: 400.0 mg/kg/injection, schedule: Q04DX002 (ip), vehicle: Klucel (hydroxypropylcellulose) (HPC)
[27] = dose: 100.0 mg/kg/injection, schedule: Q04DX003 (ip), vehicle: saline

Measured: T/C

CNC1CCCCC1O (configuration not stated)
inactive: [1] 97 % of control | [2] 91 % of control | [3] 94 % of control

COc1cc(CC(=O)O)ccc1OCc1ccccc1
inactive: [4] 101 % of control | [5] 101 % of control | [6] 116 % of control

O=C(OCCl)c1ccc(Cl)c(Cl)c1
inactive: dose: 25.0 mg/kg/injection, schedule: Q04DX003 (ip), vehicle: Klucel (hydroxypropylcellulose) (HPC) 95 % of control | dose: 50.0 mg/kg/injection, schedule: Q04DX003 (ip), vehicle: Klucel (hydroxypropylcellulose) (HPC) 98 % of control | [7] 101 % of control

CCOC(=O)C(=O)Cc1ccccc1[N+](=O)[O-]
inactive: [8] 96 % of control | [9] 102 % of control | dose: 400.0 mg/kg/injection, schedule: Q01DX001 (ip), vehicle: Klucel (hydroxypropylcellulose) (HPC) 95 % of control

Cc1ccc(NC(=O)Nc2cccc(Cl)c2)cc1C
inactive: [10] 96 % of control | [7] 90 % of control | [11] 98 % of control | [12] 92 % of control | [13] 95 % of control | [14] 92 % of control

CCC(c1ccc(OC)cc1)C(O)(CC)c1ccc(OC)cc1 (configuration not stated)
inactive: [7] 98 % of control | [12] 98 % of control | [14] 102 % of control

OCC1CC(n2cnc3c(Cl)ncnc32)C(O)C1O (configuration not stated)
inactive: dose: 75.0 mg/kg/injection, schedule: Q01DX009 (ip), vehicle: saline with Tween-80 107 % of control | [4] 101 % of control | dose: 150.0 mg/kg/injection, schedule: Q01DX009 (ip), vehicle: saline with Tween-80 92 % of control

NC(C(=O)O)C(O)C(=O)O (configuration not stated)
inactive: dose: 75.0 mg/kg/injection, schedule: Q04DX003 (ip), vehicle: saline 98 % of control | dose: 150.0 mg/kg/injection, schedule: Q04DX003 (ip), vehicle: saline 98 % of control | dose: 300.0 mg/kg/injection, schedule: Q04DX003 (ip), vehicle: saline 96 % of control

O=C1NC(c2ccc(Cl)cc2)N2C(=O)NC(c3ccc(Cl)cc3)N12 (configuration not stated)
inactive: dose: 50.0 mg/kg/injection, schedule: Q04DX002 (ip), vehicle: saline with Tween-80 97 % of control | [15] 94 % of control | [16] 97 % of control

CC(=O)/C(C)=N/O
inactive: [17] 98 % of control | [18] 98 % of control | [19] 96 % of control

O=C(Nc1cccc(F)c1)Nc1ncccn1
inactive: [4] 90 % of control | [5] 86 % of control | [6] 100 % of control

O=C(/C=C/c1ccc(Cl)c(Cl)c1)C1CCC2CCCCC2C1 (configuration not stated)
inactive: [4] 90 % of control | [15] 105 % of control | [5] 93 % of control | [16] 101 % of control | [6] 90 % of control | [20] 90 % of control

CCCC[Si](Cl)(CCCC)CCCC
inactive: [1] 90 % of control | [17] 95 % of control | [2] 92 % of control | [18] 108 % of control | [3] 90 % of control | [19] 90 % of control

CN1CCN(C(CO)Cc2ccccc2)CC1 (configuration not stated)
inactive: [17] 98 % of control | [18] 104 % of control

NC(=S)N/N=C(\c1ccc(F)cc1)C1CC1
inactive: dose: 1.0 mg/kg/injection, schedule: Q01DX Z (ip), vehicle: methylcellulose (MC) 92 % of control | dose: 2.0 mg/kg/injection, schedule: Q01DX Z (ip), vehicle: methylcellulose (MC) 101 % of control | dose: 4.0 mg/kg/injection, schedule: Q01DX Z (ip), vehicle: methylcellulose (MC) 97 % of control | dose: 8.0 mg/kg/injection, schedule: Q01DX Z (ip), vehicle: methylcellulose (MC) 93 % of control | dose: 8.0 mg/kg/injection, schedule: Q01DX Z (oral), vehicle: methylcellulose (MC) 100 % of control

NNC(=O)C(Oc1ccccc1Cl)c1ccccc1 (configuration not stated)
inactive: dose: 100.0 mg/kg/injection, schedule: Q01DX001 (ip), vehicle: carboxymethylcellulose (CMC) 105 % of control | dose: 200.0 mg/kg/injection, schedule: Q01DX001 (ip), vehicle: carboxymethylcellulose (CMC) 97 % of control | dose: 400.0 mg/kg/injection, schedule: Q01DX001 (ip), vehicle: carboxymethylcellulose (CMC) 105 % of control

Clc1ccc(/C=C/c2nccc(Cl)n2)cc1
inactive: [21] 106 % of control | [22] 106 % of control | dose: 400.0 mg/kg/injection, schedule: Q04DX003 (ip), vehicle: saline with Tween-80 106 % of control

Cc1cccnc1C(=O)O
inactive: dose: 50.0 mg/kg/injection, schedule: Q04DX003 (ip), vehicle: saline with Tween-80 94 % of control | [17] 94 % of control | [21] 95 % of control | [18] 94 % of control | [22] 91 % of control

CCCCCCNC(N)=O
inactive: [23] 93 % of control and 100 % of control | [4] 100 % of control and 101 % of control | [5] 100 % of control and 101 % of control

CCCC(O)Cc1c[nH]c(=O)[nH]c1=O (configuration not stated)
inactive: [23] 103 % of control | [4] 98 % of control | [21] 95 % of control | [22] 98 % of control

Cc1ccc(S(=O)(=O)NC(CCl)=NCc2ccccc2)cc1
inactive: [24] 96 % of control | [25] 100 % of control | [26] 114 % of control

COC(=O)C(NC(=O)CCl)C(=O)OC
inactive: dose: 100.0 mg/kg/injection, schedule: Q04DX003 (ip), vehicle: other 96 % of control | dose: 200.0 mg/kg/injection, schedule: Q04DX003 (ip), vehicle: other 93 % of control | dose: 400.0 mg/kg/injection, schedule: Q04DX003 (ip), vehicle: other 94 % of control

COc1cc(C2(O)C=C(C)C(=O)C=C2C)c(OC)cc1C (configuration not stated)
inactive: dose: 50.0 mg/kg/injection, schedule: Q01DX001 (ip), vehicle: Klucel (hydroxypropylcellulose) (HPC) 92 % of control | [8] 87 % of control | [9] 86 % of control

N#CCCCN=[N+]=[N-]
inactive: dose: 37.5 mg/kg/injection, schedule: Q04DX003 (ip), vehicle: saline 104 % of control

Cc1cccc(C)c1NC(=O)N(CCO)C1CCCCC1
inactive: [27] 102 % of control | dose: 200.0 mg/kg/injection, schedule: Q04DX003 (ip), vehicle: saline 112 % of control | dose: 400.0 mg/kg/injection, schedule: Q04DX003 (ip), vehicle: saline 104 % of control

CCCCCCCCCCCCCCCCCCNC(=O)Nc1ccccc1OC
inactive: [24] 101 % of control | [25] 107 % of control | [26] 96 % of control

O=C(Nc1ccc(O)cc1)c1ccc([N+](=O)[O-])cc1
inactive: [10] 94 % of control | [11] 95 % of control | [13] 100 % of control

O=S1Oc2ccccc2O1
inactive: dose: 75.0 mg/kg/injection, schedule: Q01DX001 (ip), vehicle: saline 117 % of control | dose: 150.0 mg/kg/injection, schedule: Q01DX001 (ip), vehicle: saline 103 % of control

C1CCC(C2CCC(C3CCCC3)C2)C1 (configuration not stated)
inactive: [15] 91 % of control | [16] 94 % of control | [20] 91 % of control

CN(N)P(=O)(c1ccccc1)N(C)N
inactive: dose: 25.0 mg/kg/injection, schedule: Q01DX009 (ip), vehicle: saline 103 % of control | dose: 25.0 mg/kg/injection, schedule: Q04DX003 (ip), vehicle: saline 101 % of control | [1] 100 % of control | dose: 50.0 mg/kg/injection, schedule: Q04DX003 (ip), vehicle: saline 98 % of control | [27] 104 % of control and 105 % of control
